The text below walks through data of BindingDB's records for doi:10.1124/jpet.102.039867 (Institut De Recherches Servier, 2002).

Usually Ki stands for the equilibrium dissociation constant of an inhibitor or competing ligand from its target. A high value points to weaker binding.

The experiment has as its target T1, Alpha-2C adrenergic receptor (Homo sapiens, UniProt P18825).
T1 sequence (P18825 whole entry): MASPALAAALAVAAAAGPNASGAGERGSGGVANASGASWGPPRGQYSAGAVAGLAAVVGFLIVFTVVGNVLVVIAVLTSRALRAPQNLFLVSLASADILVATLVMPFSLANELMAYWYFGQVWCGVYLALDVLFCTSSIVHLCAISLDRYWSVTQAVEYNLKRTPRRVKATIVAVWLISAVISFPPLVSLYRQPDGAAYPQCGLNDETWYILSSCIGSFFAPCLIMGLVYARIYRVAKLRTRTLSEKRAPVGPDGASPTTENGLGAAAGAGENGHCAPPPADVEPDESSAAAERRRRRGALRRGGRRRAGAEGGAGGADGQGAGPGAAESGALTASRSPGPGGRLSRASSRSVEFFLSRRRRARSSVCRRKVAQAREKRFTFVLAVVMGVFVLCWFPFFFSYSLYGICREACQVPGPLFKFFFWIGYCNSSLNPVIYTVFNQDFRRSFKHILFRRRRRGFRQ

Each structure is given as a SMILES string.

`CCN(CC)C(=O)N[C@H]1C[C@@H]2c3cccc4[nH]cc(c34)C[C@H]2N(C)C1` came in with a Ki of 0.76 nM.
In turn, `CCCN1C[C@H](CSC)C[C@@H]2c3cccc4[nH]cc(c34)C[C@H]21` [Permax] returned a Ki of 67.6 nM.
In turn, `C=CCN1CCc2nc(N)sc2CC1` [B-HT 920] displayed a Ki of 42.7 nM.
On to `CN(C)C1CCc2cc(O)c(O)cc2C1` (stereo not given) [(6,7-Dihydroxy-1,2,3,4-tetrahydro-naphthalen-2-yl)-dimethyl-ammonium], for which the affinity corresponds to a Ki of 6.03 nM.
Turning to `Oc1ccc2[nH]cc(CCCCN3CC=C(c4ccccc4)CC3)c2c1`, the affinity corresponds to a Ki of 1.78 nM.
With `CCCNC1CCc2nc(N)sc2C1` (stereo not given) [Pramipexole] the figure was more than 10000 nM; with `C=CCN1CC(C(=O)N(CCCN(C)C)C(=O)NCC)CC2c3cccc4[nH]cc(c34)CC21` (stereo not given) [NSC_54746], 22.4 nM; with `CCCN(CCC)CCc1cccc2c1CC(=O)N2`, 1200 nM.
The compound `CN1CCc2cccc3c2[C@H]1Cc1ccc(O)c(O)c1-3` [APOKYN] registered a Ki of 36.3 nM.
In turn, `CCCN1CCC[C@@H]2Cc3nc(N)ncc3C[C@H]21` [Quinerolane] had a Ki of more than 10000 nM.
